Patent publication US10167262B2, “Herbicidal substituted 3-arylpyrazoles” (FMC CORPORATION, priority 2014, dated 2019)

Assays:
Type in all cases: in vivo
[1] = tested on: Italian ryegrass (Lolium multiflorum); test: Test C pre-/postemergence greenhouse test, plant response rating 0-100; conditions: Postemergence
In short: (§1)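 Plants were treated either at seeding (soil of loam and sand) or as 2–18 cm seedlings in a sphagnum peat mix, using test chemicals in a surfactant-containing non-phytotoxic solvent. Visual assessment relative to controls followed 13–15 days later.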

[2] = tested on: galium (catchweed bedstraw, Galium aparine); test: as above; conditions: Postemergence
In short: as §1

[3] = tested on: yellow nutsedge (Cyperus esculentus); test: as above; conditions: Postemergence
In short: as §1

[4] = tested on: large (Lg) crabgrass (Digitaria sanguinalis); test: as above; conditions: Postemergence
In short: as §1

[5] = tested on: velvetleaf (Abutilon theophrasti); test: as above; conditions: Postemergence
In short: as §1

corn (Zea mays) = test: as above; conditions: Postemergence
In short: as §1

[6] = tested on: ragweed (common ragweed, Ambrosia elatior); test: as above; conditions: Postemergence
In short: as §1

[7] = tested on: morningglory (Ipomoea coccinea); test: as above; conditions: Postemergence
In short: as §1

[8] = tested on: pigweed (Amaranthus retroflexus); test: as above; conditions: Postemergence
In short: as §1

[9] = tested on: lambsquarters (Chenopodium album); test: as above; conditions: Postemergence
In short: as §1

soybean (Glycine max) = test: as above; conditions: Postemergence
In short: as §1

[10] = tested on: blackgrass (Alopecurus myosuroides); test: as above; conditions: Postemergence
In short: as §1

[11] = tested on: goosegrass (Eleusine indica); test: Test C postemergence greenhouse test, plant response rating 0-100
In short: (§2)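 Scores run from 0, meaning no effect, to 100, meaning complete control, and come from visual comparison with untreated controls. Treatment was a postemergence application to plants 2–18 cm tall. Assessment followed 13 to 15 days of greenhouse growth.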

[12] = tested on: bermudagrass (Cynodon dactylon); test: as above
In short: as §2

CC(C)n1cc(C(=O)c2ccccc2)c(-c2cc(Cl)cc(Cl)c2)n1 [Compound 44]
75: Plant response rating (0 to 100), Velvetleaf ([5]; 125 g ai/ha)
45: Plant response rating (0 to 100), Lambsquarters ([9]; 62 g ai/ha) | Plant response rating (0 to 100), Lambsquarters ([9]; 125 g ai/ha)
10: Plant response rating, Crabgrass, Large ([4]; 250 g ai/ha, scale 0 to 100) | Plant response rating, Corn (corn (Zea mays); 250 g ai/ha, scale 0 to 100) | Plant response rating, Ragweed ([6]; 250 g ai/ha, scale 0 to 100)
0: Plant response rating (0 to 100), Ryegrass, Italian ([1]; 62 g ai/ha) | Plant response rating (0 to 100), Ryegrass, Italian ([1]; 125 g ai/ha) | Plant response rating, Ryegrass, Italian ([1]; 250 g ai/ha, scale 0 to 100) | Plant response rating (0 to 100), Galium ([2]; 31 g ai/ha) | Plant response rating (0 to 100), Galium ([2]; 62 g ai/ha) | Plant response rating (0 to 100), Galium ([2]; 125 g ai/ha) | Plant response rating, Galium ([2]; 250 g ai/ha, scale 0 to 100) | Plant response rating (0 to 100), Nutsedge, Yellow ([3]; 62 g ai/ha) | Plant response rating (0 to 100), Nutsedge, Yellow ([3]; 125 g ai/ha) | Plant response rating, Nutsedge, Yellow ([3]; 250 g ai/ha, scale 0 to 100) | Plant response rating (0 to 100), Crabgrass, Large ([4]; 31 g ai/ha) | Plant response rating (0 to 100), Corn (corn (Zea mays); 31 g ai/ha) | Plant response rating (0 to 100), Morningglory ([7]; 62 g ai/ha) | Plant response rating (0 to 100), Blackgrass ([10]; 31 g ai/ha) | Plant response rating (0 to 100), Blackgrass ([10]; 62 g ai/ha) | Plant response rating (0 to 100), Blackgrass ([10]; 125 g ai/ha) | Plant response rating, Blackgrass ([10]; 250 g ai/ha, scale 0 to 100) | Plant response rating (0 to 100), Goosegrass ([11]; 31 g ai/ha) | Plant response rating (0 to 100), Goosegrass ([11]; 62 g ai/ha) | Plant response rating (0 to 100), Goosegrass ([11]; 125 g ai/ha) | Plant response rating, Goosegrass ([11]; 250 g ai/ha, scale 0 to 100) | Plant response rating (0 to 100), Bermudagrass ([12]; 31 g ai/ha) | Plant response rating (0 to 100), Bermudagrass ([12]; 62 g ai/ha) | Plant response rating (0 to 100), Bermudagrass ([12]; 125 g ai/ha) | Plant response rating, Bermudagrass ([12]; 250 g ai/ha, scale 0 to 100)
60: Plant response rating (0 to 100), Velvetleaf ([5]; 62 g ai/ha) | Plant response rating (0 to 100), Pigweed ([8]; 62 g ai/ha) | Plant response rating (0 to 100), Pigweed ([8]; 125 g ai/ha)
80: Plant response rating, Velvetleaf ([5]; 250 g ai/ha, scale 0 to 100)
100: Plant response rating, Pigweed ([8]; 250 g ai/ha, scale 0 to 100)
5: Plant response rating (0 to 100), Crabgrass, Large ([4]; 62 g ai/ha) | Plant response rating (0 to 100), Crabgrass, Large ([4]; 125 g ai/ha) | Plant response rating (0 to 100), Corn (corn (Zea mays); 62 g ai/ha) | Plant response rating (0 to 100), Corn (corn (Zea mays); 125 g ai/ha) | Plant response rating (0 to 100), Ragweed ([6]; 62 g ai/ha) | Plant response rating (0 to 100), Ragweed ([6]; 125 g ai/ha) | Plant response rating (0 to 100), Morningglory ([7]; 125 g ai/ha) | Plant response rating, Morningglory ([7]; 250 g ai/ha, scale 0 to 100) | Plant response rating (0 to 100), Soybean (soybean (Glycine max); 62 g ai/ha) | Plant response rating (0 to 100), Soybean (soybean (Glycine max); 125 g ai/ha) | Plant response rating, Soybean (soybean (Glycine max); 250 g ai/ha, scale 0 to 100)
55: Plant response rating, Lambsquarters ([9]; 250 g ai/ha, scale 0 to 100)
